Results on 5 compounds are retold here after patent US12048695B2, “Immediate release pharmaceutical formulation of 4-[3-(4-cyclopropanecarbonyl-piperazine-1-carbonyl)-4-fluoro-benzyl]-2H-phthalazin-1-one” (KUDOS PHARMACEUTICALS LIMITED, priority 2008, dated 2024).

In brackets after ≈: the same amount, converted by molar mass. Like-named read-outs stand apart in the source and are kept apart here.

Series [1] is described as follows: In vitro dissolution of Compound 1 preparations (USP Apparatus I, TRIS buffer pH 7.2). Format: physicochemical. As to the method:
Dissolution was performed according to the general procedure of the United States Pharmacopeia Apparatus I (Basket). An amount of material containing approximately 100 mg of Compound 1 was weighed accurately then transferred to a dissolution vessel containing 500 mL of TRIS buffer (0.05M tris(hydroxymethyl)aminomethane solution adjusted to pH 7.2 with hydrochloric acid) maintained at 37° C. and stirred at 100 rpm. […] Compound 1 concentration in the filtrate was determined by ultraviolet spectroscopy at a wavelength of 278 nm.

Series [2] is described as follows: Solubility in real and simulated gastrointestinal media. Format: physicochemical. The following applies: thermodynamic from solid; for solubility thermodynamic at 24 hr: read-out: Equilibrium solubility, 24 hr. As for the experimental part: The solubility of Compound 1 was also measured in real and simulated gastrointestinal media (Table 2).
The nature of series [3]: Solubility in water and pH buffered solutions. It is filed as physicochemical. As for the experimental part:
The solubility of crystalline Form A of Compound 1 was measured in water and a range of pH buffered solutions representing the physiological pH range. The physical form of any undissolved (or precipitated) Compound 1 was not assessed by XRPD after solubility determination. The Form A crystalline form of Compound 1 is disclosed in WO2008/047082.

The nature of series [4]: Permeability across Caco-2 monolayers. The following applies: human, Caco-2; for efflux ratio / Papp A→B / Papp B→A: marker compound, concentration not given. Format: in vitro ADME.
Another series in a line: pKa. It is filed as physicochemical. The following applies: phthalazinone moiety. From the text: 4-[3-(4-cyclopropanecarbonyl-piperazine-1-carbonyl)-4-fluoro-benzyl]-2H-phthalazin-1-one (Compound 1) is a weakly acidic compound with a pKa of about 12.5 (phthalazinone moiety). It is essentially neutral across the physiological pH range.
The test system of a further series is P-gp. Nature of the series: Permeability across Caco-2 monolayers. It is filed as in vitro ADME. To be noted: human, Caco-2, 10 μM.
The subject of another series is Caco-2 monolayers. Nature of the series: Permeability across Caco-2 monolayers. Format: in vitro ADME. On the technique in general: Passage across Caco-2 layers is used to estimate intestinal permeability.

As to `O=C(c1cc(Cc2n[nH]c(=O)c3ccccc23)ccc1F)N1CCN(C(=O)C2CC2)CC1` [Drug only], the “Dissolution (% Release)” value in series [1] (15 min) stood at 15%; in series [1] (30 min), 28%; in series [1] (45 min), 43%; in series [1] (60 min), 51%; in series [1] (75 min), 58%; in series [1] (90 min), 62%. The “Dissolution (% Release)” value stood at 68% in series [1] (105 min) and 71% in series [1] (120 min).
For `O=C(c1cc(Cc2n[nH]c(=O)c3ccccc23)ccc1F)N1CCN(C(=O)C2CC2)CC1` [Compound 1 (Form A), 4-[3-(4-cyclopropanecarbonyl-piperazine-1-carbonyl)-4-fluoro-benzyl]-2H-phthalazin-1-one], the solubility thermodynamic at 24 hr is 0.13 mg/mL (≈ 299 µM) in series [2] (Fasted State Simulated Intestinal Fluid (FaSSIF), fassif); 0.2 mg/mL (≈ 460 µM) in series [2] (Fed State Simulated Intestinal Fluid (FeSSIF), fessif); 0.12 mg/mL (≈ 276 µM) in series [2] (Simulated Gastric Fluid (SGF), simulated gastric fluid); 0.15 mg/mL (≈ 345 µM) in series [2] (human, Human Gastric Fluid (HGF), plasma or biological fluid); 0.17 mg/mL (≈ 391 µM) in series [2] (human, Human Intestinal Fluid (HIF), plasma or biological fluid). In addition, the solubility (commonly the concentration that dissolves in the medium under given conditions) at 1 hr in series [3] (aqueous buffer, thermodynamic from solid, 0.1M NaOH, pH 12.5) was 0.65 mg/mL (≈ 1500 µM); in series [3] (aqueous buffer, thermodynamic from solid, pH 3 Citrate Buffer, pH 2.9) it was 0.124 mg/mL (≈ 285 µM); in series [3] (aqueous buffer, thermodynamic from solid, pH 6.8 Phosphate Buffer, pH 6.9), 0.111 mg/mL (≈ 255 µM); in series [3] (aqueous buffer, thermodynamic from solid, pH 9 Buffer, pH 8.9) it was 0.116 mg/mL (≈ 267 µM); in series [3] (simulated gastric fluid, thermodynamic from solid, 0.1M HCl, pH 1.2) it was 0.128 mg/mL (≈ 295 µM); in series [3] (thermodynamic from solid, Water, pH 5.6), 0.124 mg/mL (≈ 285 µM). Moreover, the solubility at 24 hr in series [3] (aqueous buffer, thermodynamic from solid, 0.1M NaOH, 24 hr, pH 12.4) was 0.599 mg/mL (≈ 1380 µM); in series [3] (aqueous buffer, thermodynamic from solid, pH 3 Citrate Buffer, 24 hr, pH 2.9) it was 0.112 mg/mL (≈ 258 µM); in series [3] (aqueous buffer, thermodynamic from solid, pH 6.8 Phosphate Buffer, 24 hr, pH 6.9), 0.096 mg/mL (≈ 221 µM); in series [3] (simulated gastric fluid, thermodynamic from solid, 0.1M HCl, 24 hr, pH 1.2) it was 0.114 mg/mL (≈ 262 µM); in series [3] (thermodynamic from solid, Water, 24 hr, pH 6.0), 0.109 mg/mL (≈ 251 µM). Further, the solubility in series [3] (pH 9 Buffer, 24 hr, pH 8.8) is 0.102 mg/mL (≈ 235 µM).
`CC(C)NCC(O)COc1cccc2ccccc12` (stereo not drawn) [Propranolol, propranolol, reference compound]: in series [4], the efflux ratio (usually a quotient of directional permeabilities that is used to spot active efflux) came out at 1.1. In series [4] (n = 3, ±S.D.), the Papp A→B (commonly how fast a substance crosses the layer from the apical side) stood at 200 ± 25.7 nm/s and the Papp B→A (in general, how fast a substance crosses the layer from the basolateral side) came out at 215 ± 3.3 nm/s.
Turning to `C[C@H]1O[C@@H](O[C@H]2[C@@H](O)C[C@H](O[C@H]3[C@@H](O)C[C@H](O[C@H]4CC[C@@]5(C)[C@H](CC[C@@H]6[C@@H]5C[C@@H](O)[C@]5(C)[C@@H](C7=CC(=O)OC7)CC[C@]65O)C4)O[C@@H]3C)O[C@@H]2C)C[C@H](O)[C@@H]1O` [Digoxin, digoxin, reference compound], the efflux ratio in series [4] was found to be 9.1. Besides, in series [4] (n = 3, ±S.D.), the Papp A→B was found to be 13.4 ± 0.3 nm/s and the Papp B→A stood at 122 ± 13.7 nm/s.
For `O=C(c1cc(Cc2n[nH]c(=O)c3ccccc23)ccc1F)N1CCN(C(=O)C2CC2)CC1` [Compound 1, 4-[3-(4-cyclopropanecarbonyl-piperazine-1-carbonyl)-4-fluoro-benzyl]-2H-phthalazin-1-one], the solubility in series [2] (fed state simulated intestinal fluid, fessif, read-out: highest solubility) was 0.2 mg/mL (≈ 460 µM). Besides, the solubility at 24 hr in series [2] (human, real and simulated gastrointestinal media, fassgf or other biorelevant) is 0.12 to 0.2 mg/mL (≈ 276 to 460 µM). The pKa (commonly the negative logarithm of the acid dissociation constant) in “pKa” was approximately 12.5. For the same compound, the solubility thermodynamic in series [3] (aqueous buffer, thermodynamic from solid, range of aqueous buffers (pH 1-9), read-out: aqueous equilibrium solubility) is approximately 0.1 mg/mL (≈ 230 µM). In the series with P-gp, the efflux ratio at 10 μM turned out to be 6.5. In the series on P-gp (n = 3, ±S.D.), this compound returned a Papp A→B at 10 μM of 36.7 ± 3.4 nm/s and a Papp B→A at 10 μM of 237 ± 28.4 nm/s. In addition, in the series with Caco-2 monolayers (compared to the high permeability marker propranolol), the “permeability” value is recorded as “moderately permeable”. Also, in the series on Caco-2 monolayers (equated from Caco-2 Papp), the “human Peff” value is 1400 nm/s. In addition, in the series with Caco-2 monolayers (low concentrations (10 μM), inhibited by Elacridar), the “efflux by P-gp” value was “propensity for efflux by P-gp”. The Papp (as a rule, the rate of passage across a membrane or cell layer, normalised by area and donor concentration) at 10 μM in series [4] came to 36.7 nm/s. In series [4] (260 μM), the efflux ratio at 260 μM amounted to 2.3. In series [4] (260 μM, n = 3, ±S.D.), this compound returned a Papp A→B at 260 μM of 77.5 ± 8.8 nm/s and a Papp B→A at 260 μM of 178 ± 11.9 nm/s. In series [4] (700 μM), the efflux ratio at 700 μM was determined as 1.8. In series [4] (700 μM, n = 3, ±S.D.), the apical-to-basolateral permeability (Papp A→B) at 700 μM amounted to 84 ± 4.1 nm/s and the Papp B→A at 700 μM came out at 151 ± 14.2 nm/s.
